Measured values published in PMC10893631, “Receptor-based pharmacophore modeling, molecular docking, synthesis and biological evaluation of novel VEGFR-2, FGFR-1, and BRAF multi-kinase inhibitors” (BMC Chemistry, 2024).

Experiments:
Assay in all cases: NCI SRB growth inhibition (single dose 10 µM / five-dose)
Assay type in all cases: cell-based, human
MDA-MB-468 = tested on: MDA-MB-468
Summary of the method: (§1)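 Single-dose screen output reported as mean graph; selected compounds then run at five concentrations. Cells pre-grown 24 h before drug addition, fixed with TCA, and quantified by SRB dye binding.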

SNB-75 = tested on: SNB-75
Summary of the method: as §1

LOX IMVI = tested on: LOX IMVI
Summary of the method: as §1

SK-OV-3 = tested on: SK-OV-3
Summary of the method: as §1

MDA-MB-435 = tested on: MDA-MB-435
Summary of the method: as §1

HOP-62 = tested on: HOP-62
Summary of the method: as §1

RXF 393 = tested on: RXF 393
Summary of the method: as §1

CAKI-1 = tested on: CAKI-1
Summary of the method: as §1

KM12 = tested on: KM12
Summary of the method: as §1

NCI-H522 = tested on: NCI-H522
Summary of the method: as §1

DU-145 = tested on: DU-145
Summary of the method: as §1

MDA-MB-231/ATCC = tested on: MDA-MB-231/ATCC
Summary of the method: as §1

BT-549 = tested on: BT-549
Summary of the method: as §1

HT29 = tested on: HT29
Summary of the method: as §1

SR = tested on: SR
Summary of the method: as §1

SF-539 = tested on: SF-539
Summary of the method: as §1

SK-MEL-5 = tested on: SK-MEL-5
Summary of the method: as §1

SNB-19 = tested on: SNB-19
Summary of the method: as §1

SF-268 = tested on: SF-268
Summary of the method: as §1

786–0 = tested on: 786–0
Summary of the method: as §1

NCI/ADR-RES = tested on: NCI/ADR-RES
Summary of the method: as §1

HL-60(TB) = tested on: HL-60(TB)
Summary of the method: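 SRB read-out. Plating density 5000–40,000 cells/well; Tz fixed at 24 h; 5 conc. (10-fold or ½ log) + control; TCA fix, 0.4% SRB/1% AcOH 10 min RT; % growth = (Ti−Tz)/(C−Tz)×100, or (Ti−Tz)/Tz×100 when Ti<Tz.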

HCT-15 = tested on: HCT-15
Summary of the method: as §1

Q: Which GI% (MDA-MB-468; MDA-MB-468 (Breast cancer), 10 µM) does the source give for “N'-(2-Hydroxybenzylidene)-2-phenyl-1H-benzo[d]imidazole-5-carbohydrazide [8a]” here?
A: 99.81%

Q: What about the GI50 (MDA-MB-468; MDA-MB-468, Breast cancer, five-dose) of the same substance?
A: 3450 nM

Q: And the GI% (SNB-75; SNB-75 (CNS cancer), 10 µM)?
A: L (GI% > 100)

Q: What about the GI50 (SNB-75; SNB-75, CNS cancer, five-dose) of the same substance?
A: 2200 nM

Q: What about the GI% (LOX IMVI; LOX IMVI (Melanoma), 10 µM) of the same substance?
A: 88.38%

Q: What about the GI50 (LOX IMVI; LOX IMVI, Melanoma, five-dose) of the same substance?
A: 2000 nM

Q: And the GI% (SK-OV-3; SK-OV-3 (Ovarian cancer), 10 µM)?
A: L (GI% > 100)

Q: And the GI50 (SK-OV-3; SK-OV-3, Ovarian cancer, five-dose)?
A: 2620 nM

Q: And the GI% (MDA-MB-435; MDA-MB-435 (Melanoma), 10 µM)?
A: 63.10%

Q: And the GI50 (MDA-MB-435; MDA-MB-435, Melanoma, five-dose)?
A: 5770 nM

Q: And the GI% (HOP-62; HOP-62 (Non-small cell lung cancer), 10 µM)?
A: L (GI% > 100)

Q: What about the GI50 (HOP-62; HOP-62, Non-small cell lung cancer, five-dose) of the same substance?
A: 1470 nM

Q: What about the GI% (RXF 393; RXF 393 (Renal cancer), 10 µM) of the same substance?
A: L (GI% > 100)

Q: And the GI50 (RXF 393; RXF 393, Renal cancer, five-dose)?
A: 2370 nM

Q: What about the GI% (CAKI-1; CAKI-1 (Renal cancer), 10 µM) of the same substance?
A: L (GI% > 100)

Q: And the GI50 (CAKI-1; CAKI-1, Renal cancer, five-dose)?
A: 3480 nM

Q: And the GI% (KM12; KM12 (Colon cancer), 10 µM)?
A: 84.00%

Q: And the GI50 (KM12; KM12, Colon cancer, five-dose)?
A: 3720 nM

Q: What about the GI% (NCI-H522; NCI-H522 (Non-small cell lung cancer), 10 µM) of the same substance?
A: L (GI% > 100)

Q: And the GI50 (NCI-H522; NCI-H522, Non-small cell lung cancer, five-dose)?
A: 1870 nM

Q: What about the GI% (DU-145; DU-145 (Prostate cancer), 10 µM) of the same substance?
A: L (GI% > 100)

Q: And the GI50 (DU-145; DU-145, Prostate cancer, five-dose)?
A: 2750 nM

Q: What about the GI% (MDA-MB-231/ATCC; MDA-MB-231/ATCC (Breast cancer), 10 µM) of the same substance?
A: 88.16%

Q: And the GI50 (MDA-MB-231/ATCC; MDA-MB-231/ATCC, Breast cancer, five-dose)?
A: 2030 nM

Q: What about the GI% (BT-549; BT-549 (Breast cancer), 10 µM) of the same substance?
A: L (GI% > 100)

Q: What about the GI50 (BT-549; BT-549, Breast cancer, five-dose) of the same substance?
A: 1800 nM

Q: What about the GI% (HT29; HT29 (Colon cancer), 10 µM) of the same substance?
A: L (GI% > 100)

Q: What about the GI50 (HT29; HT29, Colon cancer, five-dose) of the same substance?
A: 2630 nM

Q: And the GI% (SR; SR (Leukemia), 10 µM)?
A: 92.31%

Q: And the GI50 (SR; SR, Leukemia, five-dose)?
A: 1680 nM

Q: What about the GI% (SF-539; SF-539 (CNS cancer), 10 µM) of the same substance?
A: L (GI% > 100)

Q: What about the GI50 (SF-539; SF-539, CNS cancer, five-dose) of the same substance?
A: 2740 nM

Q: And the GI% (SK-MEL-5; SK-MEL-5 (Melanoma), 10 µM)?
A: 85.73%

Q: And the GI50 (SK-MEL-5; SK-MEL-5, Melanoma, five-dose)?
A: 3750 nM

Q: And the GI% (SNB-19; SNB-19 (CNS cancer), 10 µM)?
A: 95.02%

Q: And the GI50 (SNB-19; SNB-19, CNS cancer, five-dose)?
A: 4160 nM

Q: What about the GI% (SF-268; SF-268 (CNS cancer), 10 µM) of the same substance?
A: L (GI% > 100)

Q: And the GI50 (SF-268; SF-268, CNS cancer, five-dose)?
A: 2780 nM

Q: And the GI% (786–0; 786–0 (Renal cancer), 10 µM)?
A: 91.76%

Q: What about the GI50 (786–0; 786–0, Renal cancer, five-dose) of the same substance?
A: 3840 nM

Q: And the GI% (NCI/ADR-RES; NCI/ADR-RES (Ovarian cancer), 10 µM)?
A: 63.15%

Q: And the GI50 (NCI/ADR-RES; NCI/ADR-RES, Ovarian cancer, five-dose)?
A: 3510 nM

Q: And the GI% (HL-60(TB); HL-60(TB) (Leukemia), 10 µM)?
A: 95.58%

Q: And the GI50 (HL-60(TB); HL-60(TB), Leukemia, five-dose)?
A: 3080 nM

Q: What about the GI% (HCT-15; HCT-15 (Colon cancer), 10 µM) of the same substance?
A: 94.00%

Q: What about the GI50 (HCT-15; HCT-15, Colon cancer, five-dose) of the same substance?
A: 1070 nM
